Key:
JH2 domain of human Tyk2 = JH2 domain of human Tyk2 (Homo sapiens (Human), UniProt P29597); experiment: JH2 Biochemical Assay (TR-FRET probe displacement); type: binding; conditions: JH2 domain of human Tyk2, TR-FRET probe displacement
Tyk2 = Tyk2 (Homo sapiens (Human), UniProt P29597); experiment: pSTAT4 Cell Assay (MSD, NK92 cells); type: cell-based; conditions: MSD
Tyk2, sequence (P29597 whole entry): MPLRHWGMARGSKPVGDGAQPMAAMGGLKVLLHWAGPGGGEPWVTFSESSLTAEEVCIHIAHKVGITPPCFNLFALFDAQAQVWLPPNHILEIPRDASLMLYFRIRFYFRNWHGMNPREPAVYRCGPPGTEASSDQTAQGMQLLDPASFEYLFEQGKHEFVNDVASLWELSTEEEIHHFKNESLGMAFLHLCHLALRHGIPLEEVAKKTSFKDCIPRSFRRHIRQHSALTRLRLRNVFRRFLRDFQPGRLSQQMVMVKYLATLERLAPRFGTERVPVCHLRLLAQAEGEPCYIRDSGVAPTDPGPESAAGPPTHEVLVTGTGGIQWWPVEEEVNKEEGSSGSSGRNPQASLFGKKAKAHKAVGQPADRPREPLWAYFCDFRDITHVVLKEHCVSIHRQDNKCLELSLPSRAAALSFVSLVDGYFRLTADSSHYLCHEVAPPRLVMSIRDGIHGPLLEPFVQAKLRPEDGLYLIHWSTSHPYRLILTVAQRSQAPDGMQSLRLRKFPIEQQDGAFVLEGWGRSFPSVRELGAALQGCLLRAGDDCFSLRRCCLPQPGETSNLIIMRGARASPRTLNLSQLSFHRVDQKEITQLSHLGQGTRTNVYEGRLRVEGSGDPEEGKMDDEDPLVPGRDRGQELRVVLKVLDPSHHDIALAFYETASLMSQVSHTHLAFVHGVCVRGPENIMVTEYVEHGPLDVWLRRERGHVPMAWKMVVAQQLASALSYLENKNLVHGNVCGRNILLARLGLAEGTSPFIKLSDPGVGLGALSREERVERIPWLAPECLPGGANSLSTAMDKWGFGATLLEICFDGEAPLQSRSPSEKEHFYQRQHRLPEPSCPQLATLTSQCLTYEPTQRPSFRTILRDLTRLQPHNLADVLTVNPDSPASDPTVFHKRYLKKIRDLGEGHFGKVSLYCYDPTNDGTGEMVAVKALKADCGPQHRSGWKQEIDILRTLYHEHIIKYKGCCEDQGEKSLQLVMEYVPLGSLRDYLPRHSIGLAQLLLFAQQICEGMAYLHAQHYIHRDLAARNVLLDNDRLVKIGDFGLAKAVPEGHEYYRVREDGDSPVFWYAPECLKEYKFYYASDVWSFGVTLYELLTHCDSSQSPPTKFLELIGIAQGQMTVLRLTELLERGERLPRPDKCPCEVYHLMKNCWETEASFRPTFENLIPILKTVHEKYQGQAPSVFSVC

JH2 domain of human Tyk2, sequence (P29597 575-876): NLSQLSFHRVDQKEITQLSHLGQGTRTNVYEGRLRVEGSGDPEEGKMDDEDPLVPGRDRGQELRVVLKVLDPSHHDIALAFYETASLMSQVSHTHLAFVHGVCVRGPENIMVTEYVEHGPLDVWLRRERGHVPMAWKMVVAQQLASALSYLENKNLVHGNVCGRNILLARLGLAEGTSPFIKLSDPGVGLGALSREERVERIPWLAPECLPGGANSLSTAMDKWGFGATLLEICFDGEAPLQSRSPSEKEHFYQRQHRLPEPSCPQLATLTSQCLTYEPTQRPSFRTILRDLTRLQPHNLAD

| Compound | IC50 (JH2 domain of human Tyk2) [nM] | IC50 (Tyk2) [nM] |
| --- | --- | --- |
| CCOc1cnc(NC(C)=O)cc1Nc1cc(O[C@H]2C[C@H](OC)C2)nc(C)n1 [Example 519, N-(5-ethoxy-4-((6-((1r,3r)-3-methoxycyclobutoxy)-2-methylpyrimidin-4-yl)amino)pyridin-2-yl)acetamide] | 100 to 1000 | 100 to 1000 |
| CNC(=O)Nc1cc(Nc2cc(C)nc(C(C)(F)F)n2)c(-c2ccc(C#N)cn2)cn1 [Example 520, 1-(5-cyano-4′-((2-(1,1-difluoroethyl)-6-methylpyrimidin-4-yl)amino)-[2,3′-bipyridin]-6′-yl)-3-methylurea] | ≤ 10 | ≤ 10 |
| COCCOc1ccc(-c2cnc(NC(C)=O)cc2Nc2ccnc(C(C)(F)F)n2)nc1 [Example 523, N-(4′-((2-(1,1-difluoroethyl)pyrimidin-4-yl)amino)-5-(2-methoxyethoxy)-[2,3′-bipyridin]-6′-yl)acetamide] | ≤ 10 | ≤ 10 |
| CC(=O)Nc1cc(Nc2cc(C)nc(C(C)(F)F)n2)c(-c2ccc(COC(F)F)cn2)cn1 [Example 524, N-(4′-((2-(1,1-difluoroethyl)-6-methylpyrimidin-4-yl)amino)-5-((difluoromethoxy)methyl)-[2,3′-bipyridin]-6′-yl)acetamide] | ≤ 10 | ≤ 10 |
| CC(=O)Nc1cc(Nc2cccc(C(C)(F)F)n2)c(-c2ccc(C#N)cn2)cn1 [Example 525, N-(5-cyanO4′-((6-(1,1-difluoroethyl)pyridin-2-yl)amino)-[2,3′-bipyridin]-6′-yl)acetamide] | ≤ 10 | 10 to 100 |
| COc1ccc(-c2cnc(NC(C)=O)cc2Nc2cccc(C(C)(F)F)n2)nn1 [Example 526, N-(4-((6-(1,1-difluoroethyl)pyridin-2-yl)amino)-5-(6-methoxypyridazin-3-yl)pyridin-2-yl)acetamide] | ≤ 10 | 10 to 100 |
| [2H]C([2H])([2H])C(=O)Nc1cc(Nc2ccnc(C(C)(F)F)n2)c(-c2ccc(OC)nn2)cn1 [Example 527, N-(4-((2-(1,1-difluoroethyl)pyrimidin-4-yl)amino)-5-(6-methoxypyridazin-3-yl)pyridin-2-yl)acetamide-2,2,2-d3] | ≤ 10 | ≤ 10 |
| CC(=O)Nc1cc(Nc2ccnc(C(C)(F)F)n2)c(-c2cc3n(n2)CCOC3)cn1 [Example 529, N-(4-((2-(1,1-difluoroethyl)pyrimidin-4-yl)amino)-5-(6,7-dihydrO4H-pyrazolo[5,1-c][1,4]oxazin-2-yl)pyridin-2-yl)acetamide] | ≤ 10 | ≤ 10 |
| CC(=O)Nc1cc(Nc2cc(C)nc(C(C)(C)F)n2)c(-c2cc3n(n2)CCOC3)cn1 [Example 530, N-(5-(6,7-dihydrO4H-pyrazolo[5,1-c][1,4]oxazin-2-yl)-4-((2-(2-fluoropropan-2-yl)-6-methylpyrimidin-4-yl)amino)pyridin-2-yl)acetamide] | ≤ 10 | ≤ 10 |
| CC(=O)Nc1cc(Nc2cc(C)nc(C(C)(C)F)n2)c(-c2cn3c(n2)COCC3)cn1 [Example 531, N-(5-(5,6-dihydrO8H-imidazo[2,1-c][1,4]oxazin-2-yl)-4-((2-(2-fluoropropan-2-yl)-6-methylpyrimidin-4-yl)amino)pyridin-2-yl)acetamide] | ≤ 10 | ≤ 10 |
| CC(=O)Nc1cc(Nc2cc(C)nc(C(C)(C)F)n2)c(-c2cn3cnnc3cn2)cn1 [Example 532, N-(5-([1,2,4]triazolo[4,3-a]pyrazin-6-yl)-4-((2-(2-fluoropropan-2-yl)-6-methylpyrimidin-4-yl)amino)pyridin-2-yl)acetamide] | ≤ 10 | 100 to 1000 |
| CC(=O)Nc1cc(Nc2cc(C)nc(C(C)(C)F)n2)c(-c2ccn3ccnc3n2)cn1 [Example 533, N-(4-((2-(2-fluoropropan-2-yl)-6-methylpyrimidin-4-yl)amino)-5-(imidazo[1,2-a]pyrimidin-7-yl)pyridin-2-yl)acetamide] | ≤ 10 | ≤ 10 |
| CC(=O)Nc1cc(Nc2cc(C)nc(C(C)(F)F)n2)c(-c2cnn3c2OCCC3)cn1 [Example 535, N-(4-((2-(1,1-difluoroethyl)-6-methylpyrimidin-4-yl)amino)-5-(6,7-dihydrO5H-pyrazolo[5,1-b][1,3]oxazin-3-yl)pyridin-2-yl)acetamide] | 10 to 100 | ≥ 1000 |
| CC(=O)Nc1cc(Nc2cc(C)nc(C(C)(F)F)n2)c(-c2ccn3ncnc3n2)cn1 [Example 536, N-(5-([1,2,4]triazolo[1,5-a]pyrimidin-5-yl)-4-((2-(1,1-difluoroethyl)-6-methylpyrimidin-4-yl)amino)pyridin-2-yl)acetamide] | ≤ 10 | ≤ 10 |
| CC(=O)Nc1cc(Nc2ccnc(C(C)(F)F)n2)c(-c2ccn3ncnc3n2)cn1 [Example 537, N-(5-([1,2,4]triazolo[1,5-a]pyrimidin-5-yl)-4-((2-(1,1-difluoroethyl)pyrimidin-4-yl)amino)pyridin-2-yl)acetamide] | ≤ 10 | 10 to 100 |
| CC(=O)Nc1cc(Nc2cc(C)nc(C(C)(C)F)n2)c(-c2ccn3nccc3n2)cn1 [Example 538, N-(4-((2-(2-fluoropropan-2-yl)-6-methylpyrimidin-4-yl)amino)-5-(pyrazolo[1,5-a]pyrimidin-5-yl)pyridin-2-yl)acetamide] | ≤ 10 | ≤ 10 |

| Compound | IC50 (JH2 domain of human Tyk2) [nM] | IC50 (Tyk2) [nM] |
| --- | --- | --- |
| CC(=O)Nc1cc(Nc2ccnc(C(C)(F)F)n2)c(-c2ccn3nccc3n2)cn1 [Example 539, N-(4-((2-(1,1-difluoroethyl)pyrimidin-4-yl)amino)-5-(pyrazolo[1,5-a]pyrimidin-5-yl)pyridin-2-yl)acetamide] | ≤ 10 | ≤ 10 |
| CC(=O)Nc1cc(Nc2cc(C)nc(C(C)(F)F)n2)c(-c2ccn3nccc3n2)cn1 [Example 540, N-(4-((2-(1,1-difluoroethyl)-6-methylpyrimidin-4-yl)amino)-5-(pyrazolo[1,5-a]pyrimidin-5-yl)pyridin-2-yl)acetamide] | ≤ 10 | ≤ 10 |
| CC(=O)Nc1cc(Nc2cc(C)nc(C(C)(F)F)n2)c(-c2cc3n(n2)CCN(C)C3=O)cn1 [Example 541, N-(4-((2-(1,1-difluoroethyl)-6-methylpyrimidin-4-yl)amino)-5-(5-methyl-4-oxO4,5,6,7-tetrahydropyrazolo[1,5-a]pyrazin-2-yl)pyridin-2-yl)acetamide] | ≤ 10 | 10 to 100 |
| CCS(=O)(=O)n1ccc(-c2cnc(NC(C)=O)cc2Nc2cc(C)nc(C(C)(F)F)n2)n1 [Example 542, N-(4-((2-(1,1-difluoroethyl)-6-methylpyrimidin-4-yl)amino)-5-(1-(ethylsulfonyl)-1H-pyrazol-3-yl)pyridin-2-yl)acetamide] | ≤ 10 | ≤ 10 |
| CC(=O)Nc1cc(Nc2cc(C)nc(C(C)(F)F)n2)c(-c2ccc(S(C)(=O)=O)cn2)cn1 [Example 543, N-(4′-((2-(1,1-difluoroethyl)-6-methylpyrimidin-4-yl)amino)-5-(methylsulfonyl)-[2,3′-bipyridin]-6′-yl)acetamide] | ≤ 10 | ≤ 10 |
| [2H]C([2H])([2H])N1CCn2nc(-c3cnc(NC(C)=O)cc3Nc3cc(C)nc(C(C)(F)F)n3)cc2C1 [Example 545, N-(4-((2-(1,1-difluoroethyl)-6-methylpyrimidin-4-yl)amino)-5-(5-(methyl-d3)-4,5,6,7-tetrahydropyrazolo[1,5-a]pyrazin-2-yl)pyridin-2-yl)acetamide] | ≤ 10 | ≤ 10 |
| COCCOc1nccc(Nc2cc(NC(C)=O)ncc2-c2ccn(C)n2)n1 [Example 549, N-(4-((2-(2-methoxyethoxy)pyrimidin-4-yl)amino)-5-(1-methyl-1H-pyrazol-3-yl)pyridin-2-yl)acetamide] | ≤ 10 | 100 to 1000 |
| COCCOc1ccnc(Nc2cc(NC(C)=O)ncc2-c2ccn(C)n2)n1 [Example 550, N-(4-((4-(2-methoxyethoxy)pyrimidin-2-yl)amino)-5-(1-methyl-1H-pyrazol-3-yl)pyridin-2-yl)acetamide] | ≤ 10 | 100 to 1000 |
| COc1nc(C)cc(Nc2cc(NC(C)=O)ncc2-c2ccn(C)n2)n1 [Example 551, N-(4-((2-methoxy-6-methylpyrimidin-4-yl)amino)-5-(1-methyl-1H-pyrazol-3-yl)pyridin-2-yl)acetamide] | ≤ 10 | 10 to 100 |
| COc1ccnc(Nc2cc(NC(C)=O)ncc2-c2ccn(C)n2)n1 [Example 553, N-(4-((4-methoxypyrimidin-2-yl)amino)-5-(1-methyl-1H-pyrazol-3-yl)pyridin-2-yl)acetamide] | 10 to 100 | 100 to 1000 |
| CC(=O)Nc1cc(Nc2cc(C)nc(C34COC(C)(C3)C4)n2)c(-c2ccn(C)n2)cn1 [Example 554, N-(5-(1-methyl-1H-pyrazol-3-yl)-4-((6-methyl-2-(1-methyl-2-oxabicyclo[2.1.1]hexan-4-yl)pyrimidin-4-yl)amino)pyridin-2-yl)acetamide] | 10 to 100 | ≥ 1000 |
| CC(=O)Nc1cc(Nc2cc(C)nc(C3CCOC3)n2)c(-c2ccn(C)n2)cn1 (centres unmarked) [Example 555, N-(5-(1-methyl-1H-pyrazol-3-yl)-4-((6-methyl-2-(tetrahydrofuran-3-yl)pyrimidin-4-yl)amino)pyridin-2-yl)acetamide] | ≤ 10 | 10 to 100 |
| CC(=O)Nc1cc(Nc2ccnc(C3CCOC3)n2)c(-c2ccn(C)n2)cn1 (centres unmarked) [Example 556, N-(5-(1-methyl-1H-pyrazol-3-yl)-4-((2-(tetrahydrofuran-3-yl)pyrimidin-4-yl)amino)pyridin-2-yl)acetamide] | ≤ 10 | 10 to 100 |
| CC(=O)Nc1cc(Nc2cc(C)nc(C34CCC(C3)OC4)n2)c(-c2ccn(C)n2)cn1 (centres unmarked) [Example 557, N-(4-((2-(2-oxabicyclo[2.2.1]heptan-4-yl)-6-methylpyrimidin-4-yl)amino)-5-(1-methyl-1H-pyrazol-3-yl)pyridin-2-yl)acetamide] | ≤ 10 | 10 to 100 |
| CC(=O)Nc1cc(Nc2cc(C)nc(C3(F)CC3)n2)c(-c2ccn(C)n2)cn1 [Example 558, N-(4-((2-(1-fluorocyclopropyl)-6-methylpyrimidin-4-yl)amino)-5-(1-methyl-1H-pyrazol-3-yl)pyridin-2-yl)acetamide] | ≤ 10 | ≤ 10 |

Source: patent US20260028365A1 (BIOGEN MA INC., priority 2022, published 2026)
